# Experimental data: ChEMBL document CHEMBL4842340, “Development of Cagrilintide, a Long-Acting Amylin Analogue” (J Med Chem, 2021)
# *1 amine or outer side, *2 acyl side, *3 side chain or, on linkers, in order; H or OH if unused. Where a SMILES comes first, the peptide text is derived from it. Bridges are numbered along the chain shown (N, C = ends). The star is where a group is joined. C20 diacid = O=C(O)CCCCCCCCCCCCCCCCCCC(=O)*; γGlu = O=C(O)[C@H](CCC(=O)[*:2])N[*:1]
# How the values were obtained:
# [1] = Solubility of the compound in lactate at pH 4 by UPLC analysis; type: physicochemical; conditions: lactate buffer
# [2] = Solubility of the compound in bis-tris propane at pH 7 by UPLC analysis; type: physicochemical; conditions: bis-tris propane buffer
# [3] = test system: Rattus norvegicus; assay: Reduction in food intake in Sprague-Dawley rat at 30 nmol/kg, sc administered as single dose measured upto 24 hrs relative to control; type: functional; design: scale not given: the % may be the effect or the level left; conditions: time hrs <=24
# [4] = organism: Homo sapiens; assay: Ratio of IC50 for displacement of [125I]-calcitonin from human calcitonin receptor expressed in tk-ts 13 cells to IC50 for displacement of [125I]-amylin from human AMY3R (CTR+RAMP3) expressed in BHK-13 cells; type: cell-based
# [5] = organism: Rattus norvegicus; assay: Ratio of IC50 for displacement of [125I]-calcitonin from rat calcitonin receptor expressed in tk-ts 13 cells to IC50 for displacement of [125I]-amylin from rat AMY3R (CTR+RAMP3) expressed in BHK-13 cells; type: cell-based
# [6] = Solubility of the compound in bis-tris propane at pH 7.5 by UPLC analysis; type: physicochemical; conditions: bis-tris propane buffer
# [7] = organism: Homo sapiens; assay: Ratio of EC50 for human calcitonin receptor expressed in BHK570 cells to EC50 for human AMY3R (CT+RAMP3) expressed in Hollex1 cells; type: cell-based
# [8] = Agonist activity at rat calcitonin receptor expressed in BHK-13 cells assessed as increase in intracellular cAMP concentration incubated for 25 mins by CRE luciferase reporter gene assay; type: cell-based; conditions: BHK-13, 25 min
# [9] = Agonist activity at human AMY3R (CT+RAMP3) expressed in Hollex1 cells incubated for 3 hrs by luminescence assay; type: cell-based; conditions: Hollex1, 3 h
# [10] = Displacement of [125I]-amylin from rat AMY3R (CTR+RAMP3) expressed in BHK-13 cells measured after 120 mins by scintillation proximity assay; type: cell-based
# [11] = test system: Rattus norvegicus; assay: Reduction in food intake in Sprague-Dawley rat at 3 nmol/kg, sc administered as single dose measured upto 24 hrs relative to control; type: functional; design: scale not given: the % may be the effect or the level left; conditions: time hrs <=24
# [12] = molecular target: Insulin (Homo sapiens) (UniProt P01308); assay: Effect on insulin (unknown origin) amyloid fibril formation assessed as peptide recovery in HEPES buffer at pH 7.5 measured after 45 hrs by thioflavin-T fluorescence assay relative to control
# Chain of Insulin (Homo sapiens) (P01308 whole entry): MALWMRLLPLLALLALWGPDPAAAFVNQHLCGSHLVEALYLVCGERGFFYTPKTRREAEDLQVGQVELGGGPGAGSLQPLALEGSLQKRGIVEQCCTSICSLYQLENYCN
# [13] = Solubility of the compound in lactate at pH 3 by UPLC analysis; type: physicochemical; conditions: lactate buffer
# [14] = organism: Rattus norvegicus; assay: Ratio of EC50 for rat calcitonin receptor expressed in BHK-13 cells to EC50 for rat AMY3R (CT+RAMP3) expressed in tk-ts13 cells; type: cell-based
# [15] = Displacement of [125I]-amylin from human AMY3R (CTR+RAMP3) expressed in BHK-13 cells measured after 120 mins by scintillation proximity assay; type: cell-based
# [16] = molecular target: Insulin (Homo sapiens) (UniProt P01308); assay: Effect on insulin (unknown origin) amyloid fibril formation assessed as lag time in glycyl-glycine buffer at pH 4 measured after 45 hrs by thioflavin-T fluorescence assay
# [17] = molecular target: Insulin (Homo sapiens) (UniProt P01308); assay: Effect on insulin (unknown origin) amyloid fibril formation assessed as lag time in HEPES buffer at pH 7.5 measured after 45 hrs by thioflavin-T fluorescence assay
# [18] = Agonist activity at rat AMY3R (CT+RAMP3) expressed in tk-ts13 cells assessed as increase in intracellular cAMP level incuabted for 25 mins by CRE luciferase reporter gene assay; type: cell-based; conditions: tk-ts13, 25 min
# [19] = Solubility of the compound in lactate at pH 5 by UPLC analysis; type: physicochemical; conditions: lactate buffer
# [20] = molecular target: Insulin (Homo sapiens) (UniProt P01308); assay: Effect on insulin (unknown origin) amyloid fibril formation assessed as peptide recovery in glycyl-glycine buffer at pH 4 measured after 45 hrs by thioflavin-T fluorescence assay relative to control; design: concentration or dose not given beside the values
# [21] = test system: Rattus norvegicus; assay: Reduction in food intake in Sprague-Dawley rat at 30 nmol/kg, sc administered as single dose measured after 24 to 48 hrs relative to control; type: functional; design: scale not given: the % may be the effect or the level left; conditions: time 24-48 hrs
# [22] = Agonist activity at human calcitonin receptor expressed in BHK570 cells assessed as increase in intracellular cAMP concentration incubated for 3 hrs in absence of albumin by CRE luciferase reporter gene assay; type: cell-based; conditions: BHK570, 3 h
# [23] = Displacement of [125I]-calcitonin from rat calcitonin receptor expressed in tk-ts 13 cells measured after 120 mins by scintillation proximity assay; type: cell-based; conditions: tk-ts13
# [24] = Displacement of [125I]-calcitonin from human calcitonin receptor expressed in tk-ts 13 cells measured after 120 mins by scintillation proximity assay; type: cell-based; conditions: tk-ts13
# [25] = test system: Rattus norvegicus; assay: Reduction in food intake in Sprague-Dawley rat at 3 nmol/kg, sc administered as single dose measured after 24 to 48 hrs relative to control; type: functional; design: scale not given: the % may be the effect or the level left; conditions: time 24-48 hrs
# [26] = Solubility of the compound in bis-tris propane at pH 6 by UPLC analysis; type: physicochemical; conditions: bis-tris propane buffer
smiles,measurement,setting,value
CC[C@H](C)[C@H](NC(=O)[C@@H]1CCCN1C(=O)CNC(=O)[C@H](Cc1ccccc1)NC(=O)[C@H](CC(N)=O)NC(=O)[C@H](CC(N)=O)NC(=O)[C@H](CO)NC(=O)[C@H](CO)NC(=O)[C@H](Cc1c[nH]cn1)NC(=O)[C@H](Cc1cnc[nH]1)NC(=O)[C@H](CC(C)C)NC(=O)[C@H](Cc1ccccc1)NC(=O)[C@H](CCC(=O)O)NC(=O)[C@H](C)NC(=O)[C@H](CC(C)C)NC(=O)[C@H](CCCNC(=N)N)NC(=O)[C@H](CCC(N)=O)NC(=O)[C@@H](NC(=O)[C@H](C)NC(=O)[C@@H]1CSSC[C@H](NC(=O)[C@H](CCCCN)NC(=O)CC[C@H](NC(=O)CCCCCCCCCCCCCCCCCCC(=O)O)C(=O)O)C(=O)N[C@@H](CC(N)=O)C(=O)N[C@@H]([C@@H](C)O)C(=O)N[C@@H](C)C(=O)N[C@@H]([C@@H](C)O)C(=O)N1)[C@@H](C)O)C(=O)N[C@@H](CC(C)C)C(=O)N1CCC[C@H]1C(=O)N1CCC[C@H]1C(=O)N[C@H](C(=O)N[C@@H](CC(N)=O)C(=O)N[C@H](C(=O)NCC(=O)N[C@@H](CO)C(=O)N[C@@H](Cc1cnc[nH]1)C(=O)N[C@H](C(=O)N[C@@H](Cc1ccc(O)cc1)C(N)=O)[C@@H](C)O)C(C)C)[C@@H](C)O ({C20 diacid-γGlu}-KCNTATCATQRLAEFLHHSSNNFGPILPPTNVGSHTY-NH2; disulfide 2-7),solubility,[1],200 µM
same,solubility,[2],103 µM
same,Activity,[3],88%
same,Ratio IC50,[4],1
same,Ratio IC50,[5],3
same,solubility,[6],109 µM
same,Ratio EC50,[7],1
same,EC50,[8],673 pM
same,EC50,[9],145 pM
same,IC50,[10],194 pM
same,Activity,[11],58%
same,Activity,[12],29%
same,solubility,[13],200 µM
same,Ratio EC50,[14],3
same,IC50,[15],1070 pM
same,TIME,[16],37 h
same,TIME,[17],1 h
same,EC50,[18],246 pM
same,solubility,[19],200 µM
same,Activity,[20],91%
same,Activity,[21],90%
same,EC50,[22],147 pM
same,IC50,[23],666 pM
same,IC50,[24],1120 pM
same,Activity,[25],40%
same,solubility,[26],200 µM
